Reference: ChEMBL document CHEMBL4130561, “Design and Synthesis of N1-Modified Imidazoquinoline Agonists for Selective Activation of Toll-like Receptors 7 and 8” (ACS Med Chem Lett, 2017)
Blank lines part the entries; values can stand above or below the molecule they belong to. Activity calls are given as the source filed them. No cut-off for these calls is given here.

How the values were obtained:
[1] = molecular target: T1, Toll-like receptor 7 (Homo sapiens) (UniProt Q9NYK1); experiment: Agonist activity at human TLR7 expressed in HEK cells at 180 uM after 8 to 12 hrs by NFkappaB/SEAP reporter gene assay; assay type: cell-based
T1 sequence (whole entry): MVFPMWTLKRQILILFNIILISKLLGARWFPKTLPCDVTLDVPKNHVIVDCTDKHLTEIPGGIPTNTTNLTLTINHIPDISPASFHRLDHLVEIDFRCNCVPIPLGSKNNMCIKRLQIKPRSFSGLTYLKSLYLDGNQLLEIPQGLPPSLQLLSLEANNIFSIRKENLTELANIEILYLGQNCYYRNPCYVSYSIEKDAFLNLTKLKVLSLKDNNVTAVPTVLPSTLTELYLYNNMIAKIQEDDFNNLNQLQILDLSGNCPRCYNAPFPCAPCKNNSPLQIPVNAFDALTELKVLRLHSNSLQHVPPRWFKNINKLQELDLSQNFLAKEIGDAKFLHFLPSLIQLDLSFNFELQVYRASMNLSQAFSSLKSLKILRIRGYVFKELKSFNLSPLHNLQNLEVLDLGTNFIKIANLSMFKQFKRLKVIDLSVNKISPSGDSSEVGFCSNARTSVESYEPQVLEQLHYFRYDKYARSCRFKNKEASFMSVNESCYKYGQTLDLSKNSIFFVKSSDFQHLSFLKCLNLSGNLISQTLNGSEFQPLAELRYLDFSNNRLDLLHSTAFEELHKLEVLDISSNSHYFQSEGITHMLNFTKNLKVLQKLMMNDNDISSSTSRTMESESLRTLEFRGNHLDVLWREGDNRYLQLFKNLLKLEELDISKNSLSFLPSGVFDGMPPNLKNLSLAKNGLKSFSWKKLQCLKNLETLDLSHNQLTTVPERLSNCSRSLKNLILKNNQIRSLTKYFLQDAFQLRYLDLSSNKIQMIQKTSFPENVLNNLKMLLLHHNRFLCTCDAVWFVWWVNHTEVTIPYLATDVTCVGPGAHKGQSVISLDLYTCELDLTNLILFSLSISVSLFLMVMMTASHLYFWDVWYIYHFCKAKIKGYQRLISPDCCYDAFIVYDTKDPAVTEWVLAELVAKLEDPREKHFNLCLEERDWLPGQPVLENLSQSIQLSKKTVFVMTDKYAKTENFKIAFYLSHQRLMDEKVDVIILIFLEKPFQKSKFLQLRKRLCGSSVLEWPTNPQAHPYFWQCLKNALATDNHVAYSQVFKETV

[2] = molecular target: T2, Toll-like receptor 8 (Homo sapiens) (UniProt Q9NR97); experiment: Agonist activity at human TLR8 expressed in HEK cells at 180 uM after 8 to 12 hrs by NFkappaB/SEAP reporter gene assay; assay type: cell-based
T2 sequence (whole entry): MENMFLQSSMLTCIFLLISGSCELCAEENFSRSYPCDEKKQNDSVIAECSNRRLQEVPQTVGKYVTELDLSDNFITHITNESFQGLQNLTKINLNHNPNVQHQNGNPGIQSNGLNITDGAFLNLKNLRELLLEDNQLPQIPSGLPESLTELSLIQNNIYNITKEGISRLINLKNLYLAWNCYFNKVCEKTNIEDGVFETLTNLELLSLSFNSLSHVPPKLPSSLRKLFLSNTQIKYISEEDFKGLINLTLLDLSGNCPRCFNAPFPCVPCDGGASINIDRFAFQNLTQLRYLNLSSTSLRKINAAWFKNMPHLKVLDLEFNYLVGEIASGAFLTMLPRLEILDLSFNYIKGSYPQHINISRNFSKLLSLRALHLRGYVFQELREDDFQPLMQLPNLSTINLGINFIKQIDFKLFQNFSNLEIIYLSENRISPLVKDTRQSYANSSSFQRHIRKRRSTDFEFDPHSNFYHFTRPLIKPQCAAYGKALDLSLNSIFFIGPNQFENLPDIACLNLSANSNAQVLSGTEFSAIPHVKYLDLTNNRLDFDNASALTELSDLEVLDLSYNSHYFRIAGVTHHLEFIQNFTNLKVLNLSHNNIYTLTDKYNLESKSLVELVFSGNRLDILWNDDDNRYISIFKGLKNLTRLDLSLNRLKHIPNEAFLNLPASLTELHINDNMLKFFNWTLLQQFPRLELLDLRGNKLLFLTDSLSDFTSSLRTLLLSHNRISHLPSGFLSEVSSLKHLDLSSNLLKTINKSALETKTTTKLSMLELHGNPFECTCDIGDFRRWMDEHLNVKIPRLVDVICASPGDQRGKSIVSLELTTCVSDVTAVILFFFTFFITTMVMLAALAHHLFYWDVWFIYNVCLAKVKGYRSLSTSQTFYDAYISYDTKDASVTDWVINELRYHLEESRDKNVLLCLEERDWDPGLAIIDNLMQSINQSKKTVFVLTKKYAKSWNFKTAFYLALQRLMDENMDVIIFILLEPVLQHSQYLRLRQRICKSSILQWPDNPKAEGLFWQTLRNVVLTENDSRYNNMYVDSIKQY

Toll-like receptor 7 = molecular target: T3, Toll-like receptor 7 (Homo sapiens, UniProt Q9NYK1); experiment: Agonist activity at human TLR7 expressed in HEK cells after 8 to 12 hrs by NFkappaB/SEAP reporter gene assay; assay type: cell-based
T3 sequence (Q9NYK1 whole entry): T1 sequence (whole entry)

PBMC [3] = experiment: Immunostimulatory activity in human PBMC assessed as increase in IL-1beta levels at 12.5 uM after 24 hrs by ELISA; assay type: functional, cell-based
PBMC [4] = experiment: Immunostimulatory activity in human PBMC assessed as increase in IL-12p70 levels at 12.5 uM after 24 hrs by ELISA; assay type: functional, cell-based
PBMC [5] = experiment: Immunostimulatory activity in human PBMC assessed as increase in IFNgamma levels at 12.5 uM after 24 hrs by ELISA; assay type: functional, cell-based
PBMC [6] = experiment: Immunostimulatory activity in human PBMC assessed as increase in IL-12p70 levels at 0.39 to 50 uM after 24 hrs by ELISA; assay type: functional, cell-based
PBMC [7] = experiment: Immunostimulatory activity in human PBMC assessed as increase in IL-1beta levels at 0.39 to 50 uM after 24 hrs by ELISA; assay type: functional, cell-based
PBMC [8] = experiment: Immunostimulatory activity in human PBMC assessed as increase in IFNgamma levels at 0.39 to 50 uM after 24 hrs by ELISA; assay type: functional, cell-based
PBMC [9] = experiment: Immunostimulatory activity in human PBMC assessed as increase in TNFalpha levels at 0.39 to 50 uM after 24 hrs by ELISA; assay type: functional, cell-based
Toll-like receptor 8 = molecular target: T4, Toll-like receptor 8 (Homo sapiens, UniProt Q9NR97); experiment: Agonist activity at human TLR8 expressed in HEK cells after 8 to 12 hrs by NFkappaB/SEAP reporter gene assay; assay type: cell-based
T4 sequence (Q9NR97 whole entry): T2 sequence (whole entry)

PBMC [10] = experiment: Immunostimulatory activity in human PBMC assessed as increase in IL-1beta levels at 1 uM after 24 hrs by ELISA; assay type: functional, cell-based
PBMC [11] = experiment: Immunostimulatory activity in human PBMC assessed as increase in IFNgamma levels at 1 uM after 24 hrs by ELISA; assay type: functional, cell-based
PBMC [12] = experiment: Immunostimulatory activity in human PBMC assessed as increase in TNFalpha levels at 1 uM after 24 hrs by ELISA; assay type: functional, cell-based
PBMC [13] = experiment: Immunostimulatory activity in human PBMC assessed as increase in TNFalpha levels at 12.5 uM after 24 hrs by ELISA; assay type: functional, cell-based

EC50 (Toll-like receptor 7): 1.72 µM
Activity [2]: inactive
Compound: CCCCc1nc2c(N)nc3cc(C(=O)OC)ccc3c2n1CCCO

Activity [2]: inactive
Compound: CCCCc1nc2c(N)nc3cc(C(=O)OC)ccc3c2n1CCCSC

Activity [1]: inactive
Compound: CCCCc1nc2c(N)nc3cc(C(=O)OC)ccc3c2n1CCN
Activity (PBMC [3]): Active
Activity (PBMC [4]): Active
Activity (PBMC [5]): Active

Activity [1]: inactive
Compound: CCCCc1nc2c(N)nc3cc(C(=O)OC)ccc3c2n1CCCCN

Activity [1]: inactive
EC50 (Toll-like receptor 8): 26.7 µM
Compound: CCCCc1nc2c(N)nc3cc(C(=O)OC)ccc3c2n1CCCN

EC50 (Toll-like receptor 7): 14.4 µM
EC50 (Toll-like receptor 8): 37 µM
Compound: CCCCc1nc2c(N)nc3cc(C(=O)OC)ccc3c2n1CCO

EC50 (Toll-like receptor 7): 3.21 µM
Activity [2]: inactive
Compound: CCCCc1nc2c(N)nc3cc(C(=O)OC)ccc3c2n1CCCCO

The next lines start with the molecule.

Compound: CCCCc1nc2c(N)nc3cc(C(=O)OC)ccc3c2n1CCc1ccc(C(=O)O)cc1
Activity [1]: inactive
Activity [2]: inactive

Compound: CCCCc1nc2c(N)nc3cc(C(=O)OC)ccc3c2n1CCC(=O)OC
Activity [2]: inactive

Compound: CC(C)Cn1cnc2c(N)nc3ccccc3c21 [IMIQUIMOD]
EC50 (Toll-like receptor 7): 11.4 µM
Activity [2]: inactive
Activity (PBMC [6]): inactive
Activity (PBMC [7]): inactive
Activity (PBMC [8]): inactive
Activity (PBMC [9]): inactive

Compound: CCCCc1nc2c(N)nc3cc(C(=O)OC)ccc3c2n1CC(C)(C)O
EC50 (Toll-like receptor 7): 1.69 µM
EC50 (Toll-like receptor 8): 20.9 µM

Compound: CCCCc1nc2c(N)nc3cc(C(=O)OC)ccc3c2n1CC(C)OC(C)=O (configuration not stated)
EC50 (Toll-like receptor 7): 3.06 µM
Activity [2]: inactive

Compound: CCCCc1nc2c(N)nc3cc(C(=O)OC)ccc3c2n1CCCCC(=O)O
Activity [1]: inactive
Activity [2]: inactive

Compound: CCCCc1nc2c(N)nc3cc(C(=O)OC)ccc3c2n1CCCCC(=O)OC
Activity [2]: inactive

Compound: CCCCCCCC(=O)OC(C)Cn1c(CCCC)nc2c(N)nc3cc(C(=O)OC)ccc3c21 (configuration not stated)
Activity [1]: inactive
Activity [2]: inactive

Compound: CCCCc1nc2c(N)nc3cc(C(=O)OC)ccc3c2n1CCSCC
Activity [2]: inactive

Compound: CCCCc1nc2c(N)nc3cc(C(=O)OC)ccc3c2n1CCSC
Activity [2]: inactive
Activity (PBMC [10]): Active
Activity (PBMC [11]): Active
Activity (PBMC [12]): Active

Compound: CCCCc1nc2c(N)nc3cc(C(=O)OC)ccc3c2n1Cc1ccc(C(=O)O)cc1
Activity [2]: inactive

Compound: CCCCc1nc2c(N)nc3cc(C(=O)OC)ccc3c2n1Cc1ccc(CN)cc1
Activity (PBMC [13]): Active

Compound: CCCCc1nc2c(N)nc3cc(C(=O)OC)ccc3c2n1CCCC(=O)OC
Activity [2]: inactive

Compound: CCCCc1nc2c(N)nc3cc(C(=O)OC)ccc3c2n1CC(=O)OC
Activity [2]: inactive

Compound: CCCCc1nc2c(N)nc3cc(C(=O)OC)ccc3c2n1CCCCCC(=O)OC
Activity [2]: inactive
